Data set [1] has as its system mouse liver or kidney [마우스의 간이나 신장]. Nature of the data set: Safety in mice: histological signs of toxicity in liver or kidney (in vivo sarcoma experiment). The following applies: up to 100mg/kg.
Data set [2] concerns human Jurkat T cells [Human Jurkat T세포]. Nature of the data set: Combination of Julibroside III and doxorubicin: cytotoxicity (MTT assay, 48 h) and FIC in Jurkat T cells. It counts as cell-based. A general note: Tetrazolium dyes change colour on reduction, which living cells bring about.
[3] abbreviates: doxorubicin and Julibroside III used in combination.

In the case of `C=C[C@](C)(CC/C=C(\C)C(=O)O[C@H]1[C@H](O)[C@@H](O)[C@H](O[C@](C)(C=C)CC/C=C(\C)C(=O)O[C@H]2C[C@]3(C(=O)O[C@@H]4O[C@H](CO)[C@@H](O)[C@H](O)[C@H]4O[C@@H]4O[C@@H](C)[C@H](O[C@@H]5O[C@@H](CO)[C@H](O)[C@H]5O)[C@@H](O[C@@H]5O[C@H](CO)[C@@H](O)[C@H](O)[C@H]5O)[C@H]4O)[C@H](O)C[C@]4(C)C(=CC[C@@H]5[C@@]6(C)CC[C@H](O[C@@H]7O[C@H](CO[C@@H]8O[C@H](C)[C@H](O)[C@H](O)[C@H]8O[C@@H]8OC[C@@H](O)[C@H](O)[C@H]8O)[C@@H](O)[C@H](O)[C@H]7NC(C)=O)C(C)(C)[C@@H]6CC[C@]54C)[C@@H]3CC2(C)C)O[C@@H]1C)O[C@@H]1O[C@H](C)[C@@H](O)[C@H](O)[C@H]1O` [Julibroside III], the “histological signs of toxicity in liver or kidney” value in data set [1] is given as “징후가 전혀 없음”. Also, the half-inhibitory concentration (IC50) – broadly, the concentration that inhibits the measured activity by half – in data set [2] (setting [3]) stood at 0.63 µg/mL; in data set [2] (treated alone), 2.5 µg/mL.

On to `COc1cccc2c1C(=O)c1c(O)c3c(c(O)c1C2=O)C[C@@](O)(C(=O)CO)C[C@@H]3O[C@H]1C[C@H](N)[C@H](O)[C@H](C)O1` [독소루비신, reference compound], for which the IC50 was 0.16 µg/mL in data set [2] (setting [3]) and 0.31 µg/mL in data set [2] (treated alone).

The values are drawn from KR20120090118A, “자귀나무 추출물을 포함하는 항암 또는 항암 보조용 조성물” (학교법인 동의학원, priority 2010, dated 2012).
